Reference: paper PMC5442318, “Hundreds of dual-stage antimalarial molecules discovered by a functional gametocyte screen” (Nature Communications, 2017)
Where two headings read alike, the source gives them in different places.

Experiments:
[1] = tested on: P. falciparum female gametes; experiment: Pf FGAA with compounds added 30 min after triggering gametocyte activation (gamete-targeting); type: cell-based, Plasmodium falciparum NF54; conditions: Plasmodium falciparum; 0h incubation time
[2] = tested on: P. falciparum stage V female gametocytes; experiment: P. falciparum female gametocyte activation assay (Pf FGAA), 24 h or 48 h preincubation, Pfs25 expression readout; type: cell-based, Plasmodium falciparum NF54; conditions: for Biological profile: Pf FGAA with 48 h, 24 h or post-activation addition, active = IC50 below 2 μM; for IC50: Plasmodium falciparum; for Pf FGAA classification: SLOW / FAST / GAMETE from activity at 48h, 24h, 0h incubation
Method in brief: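 Female activation, triggered by xanthurenic acid and cooling, was scored by imaging Cy3-labelled anti-Pfs25 female gametes after 24 h at 26 °C. Beforehand, purified NF54 stage V gametocytes had been incubated with compound for either 24 h or 48 h (37 °C, 3% O2). Values are pIC50 from full-curve regression.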

[3] = tested on: Plasmodium berghei asexual blood stages; experiment: In vivo antimalarial therapeutic efficacy, P. berghei murine model; parameters: species or system CD1 mice
Method: Two out of the six compounds progressed to SMFA, TCMDC-123767 (cluster 30) and TCMDC-141154 (cluster 4), were evaluated in vivo in the Plasmodium berghei murine model. Selection criteria was based on the compound potencies in both asexual stages and gametocytes in the Pf FGAA, as well as on their transmission-blocking activity observed in the SMFA (Table 1). Owing to compound availability, TCMDC-141154 had to be replaced by a close analogue from cluster 4: TCMDC-140549 (Supplementary Data 3). Compounds were tested at 50 mg kg^−1 single dose 2-day oral treatment and efficacy was measured as a reduction of asexual blood stages parasitaemia greater than 40% compared with the vehicle-treated mice.
Pathogen-free CD1 mice (Hsd:ICR) were obtained from Harlan Interfauna Iberica (Barcelona, Spain). Eight weeks old female CD-1 mice were infected intravenously with 10^7 infected erythrocytes (day 0). Dosing solutions were prepared in water containing 5% DMSO/20% Captisol, at a target dose of 50 mg kg^−1. Mice received two oral doses once a day according to their body weight (20 ml kg^−1) starting at day 2 after infection. Control mice received the same treatment schedule with the vehicle used for the compound preparation. Samples from mice peripheral blood were taken before starting treatment and 24 h after finishing the dosing, to measure parasitaemia by flow cytometry, using the YOYO-1 staining, to assess the reduction of parasitaemia compared with the vehicle-treated mice.

[4] = Intrinsic clearance assay; type: in vitro ADME; conditions: mouse liver microsomes, 0.5 μM
Method: Intrinsic clearance (CLi) values were determined in mouse liver microsomes (M1000, XenoTech). Test compounds (final concentration 0.5 μM) were incubated at 37 °C for 45 min in 50 mM potassium phosphate buffer (pH 7.4) containing 0.5 mg microsomal protein per ml. The reaction was started by addition of cofactor NADPH ([…], Sigma) at 1 mM final concentration. The final concentration of organic solvent (DMSO) was limited to 0.25% of the final volume. At 0, 5, 15, 30, and 45 min, an aliquot (100 μl) was taken, quenched with acetonitrile containing an appropriate internal standard, and analysed by HPLC-MS/MS (Applied Biosystems). CLi was determined from the first-order elimination constant by nonlinear regression, corrected for the volume of the incubation and assuming […] mouse protein per g liver. Values for CLi were expressed as ml min^-1 per g liver.

[5] = 24h incubation time, read-out: Pf FGAA IC50 (µM) 24h
[6] = stage V gametocytes, 48 h exposure, read-out: PfFGAA IC50

Row | SMILES | IC50 [1] | Biological profile [2] | IC50 [2, 5] | IC50 ([2]; 48h incubation time, read-out: Pf FGAA IC50 (µM) 48h) | IC50 ([2]; mean, P. falciparum female gametocyte activation assay, read-out: Gametocytes mean Pf FGAA IC50) | IC50 [2, 6] | Pf FGAA classification [2] | IC50 ([2]; P. falciparum female gametocytes, mean, read-out: Gametocytes mean Pf FGAA IC50) | reduction of asexual blood stages parasitaemia (threshold 40% vs vehicle) ([3]; 50 mg kg^−1 single dose 2-day oral treatment, mice) | ED50 ([3]; single dose 2-day treatment, oral, P. berghei mice) | in vitro microsome clearance [4]
1 | Cc1ccc(Cn2nc(Cl)c(N3CCNCC3)cc2=O)cc1NC(=O)Nc1ccc(-c2ccccc2)cc1 [TCMDC-141698] | 1.93 µM | Gamete-targeting | 0.44 µM | 0.44 µM | 0.44 µM | 0.44 µM | GAMETE | – | – | – | –
2 | NCC1(c2nc(-c3ccc(Cl)c(O)c3)c(-c3ccncc3)[nH]2)CCCCC1 [TCMDC-141154] | 0.25 µM | Gamete-targeting | 0.41 µM | – | – | 0.21 µM | GAMETE | – | – | – | –
3 | CC1Cc2ccccc2N1S(=O)(=O)c1cccc(C(=O)Nc2nc(-c3ccccn3)cs2)c1 (stereo not shown) [TCMDC-124559] | – | Fast-acting | – | – | – | 0.5 µM | FAST | 0.34 µM | – | – | –
4 | COc1cc(OC)cc(C(=O)Nc2nc(-c3ccccn3)cs2)c1 [TCMDC-125345] | 4.95 µM | Fast-acting | 0.96 µM | – | – | 0.36 µM | FAST | – | – | – | –
5 | CC(C)(CNC(=O)[C@H]1CCCCN1)c1nc(-c2ccc(Cl)c(O)c2)c(-c2ccncc2)[nH]1 [TCMDC-141070] | 1.77 µM | Gamete-targeting | 1.68 µM | – | – | 0.53 µM | GAMETE | – | – | – | –
6 | FC(F)(F)c1cnc(Sc2nnc(-c3ccncc3)o2)c(Cl)c1 [TCMDC-123767] | > 20 µM | Slow-acting | > 20 µM | – | – | 0.16 µM | SLOW | – | not reduced above the threshold | > 50 mg/kg | 7.9 ml min^−1 per g liver
